In ChEMBL document CHEMBL4229451, “Recent advances in peptidomimetics antagonists targeting estrogen receptor α-coactivator interaction in cancer therapy” (Bioorg Med Chem Lett, 2018):
Starred links: 1 amine or outer side, 2 acyl side, 3 side chain; linkers in the order of their positions; H or OH if unused. Positions of bridges follow the written chain, without caps; N, C: chain ends. Non-standard residues stand in square brackets, D forms with d. Residues, ends and D or L forms follow the SMILES beside them. X1 = O=C([C@H](CCC/C=C/[*:3])N[*:1])[*:2]

What was measured:
[1] = Half life in rabbit serum at 100 uM by RP-HPLC method; type: ADME, cell-free, Oryctolagus cuniculus
Estrogen receptor [2] = target: T1, Estrogen receptor (Homo sapiens, UniProt P03372); experiment: Binding affinity to recombinant human ERalpha LBD (301 to 553 residues) expressed in Escherichia coli BL21(DE3) using FAM-labelled compound after 1 hr by fluorescence polarization method
T1 sequence (P03372 whole entry): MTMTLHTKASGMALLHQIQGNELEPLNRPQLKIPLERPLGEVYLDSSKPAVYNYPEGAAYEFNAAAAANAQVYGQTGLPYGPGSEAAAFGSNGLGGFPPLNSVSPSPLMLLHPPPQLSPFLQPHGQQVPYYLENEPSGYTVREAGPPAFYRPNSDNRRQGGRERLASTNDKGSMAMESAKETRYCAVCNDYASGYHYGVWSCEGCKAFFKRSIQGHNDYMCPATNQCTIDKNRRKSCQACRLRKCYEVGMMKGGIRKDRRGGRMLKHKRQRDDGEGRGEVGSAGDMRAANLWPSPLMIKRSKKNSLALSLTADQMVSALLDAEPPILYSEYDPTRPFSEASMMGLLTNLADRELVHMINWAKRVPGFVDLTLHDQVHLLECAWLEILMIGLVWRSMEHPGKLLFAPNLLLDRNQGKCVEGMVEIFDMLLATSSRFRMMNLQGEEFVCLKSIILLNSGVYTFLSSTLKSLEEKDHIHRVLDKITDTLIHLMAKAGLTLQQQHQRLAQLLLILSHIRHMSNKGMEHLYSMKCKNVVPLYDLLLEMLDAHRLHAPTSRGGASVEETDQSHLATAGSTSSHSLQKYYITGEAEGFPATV

Estrogen receptor beta [3] = target: Estrogen receptor beta (Homo sapiens, UniProt Q92731, C334S/C369S/C481S); experiment: Binding affinity to recombinant human ERbeta LBD (259 to 498 residues) C334S/C369S/C481S triple mutant expressed in Escherichia coli BL21(DE3) using FAM-labelled compound after 1 hr by fluorescence polarization method
Estrogen receptor [4] = target: T1, Estrogen receptor; experiment: Displacement of THC-ketone from human ERalpha LBD (304 to 554 residues) expressed in Escherichia coli BL21(DE3) after 1 hr by fluorescence assay
Estrogen receptor [5] = target: T1, Estrogen receptor; experiment: Displacement of FAM-LTERHKILHRLLQEGSPSD from ERalpha (unknown origin) (302 to 552 residues) expressed in Escherichia coli rosetta (DE3) after 1 hr by fluorescence polarization assay
Estrogen receptor beta [6] = target: Estrogen receptor beta (Homo sapiens, UniProt Q92731); experiment: Displacement of FAM-LTERHKILHRLLQEGSPSD from ERbeta (unknown origin) (260 to 502 residues) expressed in Escherichia coli rosetta (DE3) after 1 hr by fluorescence polarization assay
Chain of Estrogen receptor beta (Homo sapiens, UniProt Q92731) (Q92731 whole entry, the tested form may be a part): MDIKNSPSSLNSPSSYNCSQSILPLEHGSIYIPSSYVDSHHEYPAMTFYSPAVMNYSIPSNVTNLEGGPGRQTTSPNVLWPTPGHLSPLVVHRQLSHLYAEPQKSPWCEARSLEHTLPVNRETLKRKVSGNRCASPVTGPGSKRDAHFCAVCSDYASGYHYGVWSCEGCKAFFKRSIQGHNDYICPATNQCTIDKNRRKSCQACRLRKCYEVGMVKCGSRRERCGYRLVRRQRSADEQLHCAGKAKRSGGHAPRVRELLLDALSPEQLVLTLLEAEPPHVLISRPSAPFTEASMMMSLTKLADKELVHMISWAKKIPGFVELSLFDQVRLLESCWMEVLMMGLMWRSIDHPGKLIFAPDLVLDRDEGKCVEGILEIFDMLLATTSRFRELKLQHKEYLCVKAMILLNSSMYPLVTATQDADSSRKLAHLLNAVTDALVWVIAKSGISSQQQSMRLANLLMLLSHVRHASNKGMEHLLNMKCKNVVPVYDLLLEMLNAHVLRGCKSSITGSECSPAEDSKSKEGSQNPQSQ

Chain of Estrogen receptor beta (Homo sapiens, UniProt Q92731, C334S/C369S/C481S) (Q92731 whole entry C334S/C369S/C481S, the tested form may be a part): as the sequence (Q92731 whole entry, the tested form may be a part) above, with C334S, C369S, C481S counted along it

Structure (SMILES) | Ki (Estrogen receptor [5]) | Ki (Estrogen receptor beta [6]) | other results
CC[C@H](C)[C@@H]1NC(=O)[C@@H](NC(=O)[C@H](CCCNC(=N)N)NC(=O)[C@H](CCCCN)NC(=O)[C@@H](N)Cc2c[nH]c3ccccc23)CS/C=C/CCC[C@@H](C(=O)N[C@@H](CC(C)C)C(=O)N[C@@H](CC(C)C)C(=O)N[C@@H](CCC(N)=O)C(=O)N[C@@H](CCC(=O)O)C(N)=O)NC(=O)[C@H](CCCNC(=N)N)NC(=O)[C@H](CC(C)C)NC1=O (H-WKRCILR[X1]LLQE-NH2; thioether 4-8) | – | – | half-life at 100 µM [1]: 18.2 h; Kd (Estrogen receptor [2]): 101 nM; Kd (Estrogen receptor beta [3]): 178 nM
CC[C@H](C)[C@H](NC(=O)[C@H](CCCCN)NC(=O)[C@H](Cc1cnc[nH]1)NC(=O)[C@H](CCCNC(=N)N)NC(=O)[C@H](CCC(=O)O)NC(=O)[C@@H](NC(=O)[C@H](CC(C)C)NC(=O)[C@@H](N)CS)[C@@H](C)O)C(=O)N[C@@H](CC(C)C)C(=O)N[C@@H](Cc1cnc[nH]1)C(=O)N[C@@H](CCCNC(=N)N)C(=O)N[C@@H](CC(C)C)C(=O)N[C@@H](CC(C)C)C(=O)N[C@@H](CCC(N)=O)C(=O)N[C@@H](CCC(=O)O)C(N)=O (H-CLTERHKILHRLLQE-NH2) | – | – | Kd (Estrogen receptor [4]): 900 nM
CSCC[C@H](NC(=O)[C@H](CC(C)C)NC(=O)[C@H](CC(C)C)NC(=O)[C@@H]1CCCN1C(=O)[C@@H](N)Cc1cnc[nH]1)C(=O)N[C@@H](CCCNC(=N)N)C(=O)N[C@@H](CC(C)C)C(=O)N[C@@H](CC(C)C)C(=O)N[C@@H](CC(C)C)C(=O)N[C@@H](CO)C(=O)N1CCC[C@H]1C(N)=O (H-HPLLMRLLLSP-NH2) | 185 nM | 25 nM | –
CSCC[C@H](NC(=O)[C@H](CC(C)C)NC(=O)[C@H](CC(C)C)NC(=O)[C@@H]1CCCN1C(=O)[C@@H](N)Cc1cnc[nH]1)C(=O)N[C@@H](CCCNC(=N)N)C(=O)N[C@@H](CC(C)C)C(=O)N[C@@H](CC(C)C)C(=O)N[C@@H](Cc1cnc[nH]1)C(=O)N[C@@H](Cc1cnc[nH]1)C(=O)N1CCC[C@H]1C(=O)N[C@@H](CO)C(N)=O (H-HPLLMRLLHHPS-NH2) | 1540 nM | 3640 nM | –
